In US5763413A, “Lewis-associated compound, process for producing the same, and anti-inflammatory” (MECT Corporation, priority 1993, dated 1998):

Legend:
[1] = Simple acute toxicity test (intravenous injection); assay type: in vivo, male mice of ddY strain; settings: i.v. (tail vein), ddY mice
Method: Example of Test 1 (Simple Acute Toxicity Test)
The simple acute toxicity test was carried out by an intravenous injection of compounds of the present invention.
Into the tail vein of male mice of ddY strain weighing 18~20 g which have been kept under the conditions at the temperature of 23°±1° C. and in the humidity of 55 ±7% were injected a solution of the compound of the present invention dissolved in the physiological saline containing the desired dose per 20 g body weighing 0.2 ml. Two dosages of which were 50 mg/kg and 500 mg/kg body weight were used.

[2] = system: passive Arthus reaction; assay: Anti-inflammatory activity test: passive Arthus reaction (Example of Test 2); assay type: in vivo, male guinea pigs of the Hartley strain; settings: Table 21, 30 min before antigen
Method: Example of Test 2 (Anti-inflammatory Activity Test)
(§1) Male guinea pigs of the Hartley strain weighing 200~250 g were used.
(2) Experimental Materials
(§2) The anti-ovalbumin rabbit serum (PCA titer=1/80,000) and ovalbumin were used as the antiserum and antigen, respectively.
(§3) The passive Arthus reaction was performed according to the method of Katayama et al. [Katayama, S. et al., Arzeim-Forsch., 31, 1196 (1981)]. That is, guinea pigs were sensitized by an intravenous injection of said anti-ovalbumin rabbit serum (2.5 ml/kg). Thirty minutes after the injection, the Arthus reaction was induced by the intradermal injection of an antigen solution (0.05 ml) containing 0.10 mg of ovalbumin to the abdomen shaved the day before. Two hours after the antigen challenge, the area of intradermal bleeding was measured and used as the index representing the grade of inflammatory reaction. Test compounds were intravenously injected 30 min before the antigen injection. Four guinea pigs per each group were used.
(§4) The percent inhibi- is expressed as the bleeding area of the challenged site (%) of the animal group injected with each compound relative to that (100%) of the group administered with the physiological saline.

[3] = system: passive Arthus reaction; assay: Anti-inflammatory activity test, carried out as Example of Test 2 (Example of Test 3); assay type: in vivo, male guinea pigs of the Hartley strain; settings: Table 22, i.v.
Method: as §1, §2, §3, §4
The anti-inflammatory activity test of compounds of the present invention was similarly carried out as in the case of Example of Test 2.

Row | SMILES | Mortality ([1]; 50 mg/kg) | Mortality ([1]; 500 mg/kg) | Percent inhibition (passive Arthus reaction) ([2]; 1 mg/kg i.v.) | Percent inhibition (passive Arthus reaction) ([2]; 3 mg/kg i.v.) | Percent inhibition (passive Arthus reaction) ([3]; 0.01 mg/kg) | Percent inhibition (passive Arthus reaction) ([3]; 0.1 mg/kg) | Percent inhibition (passive Arthus reaction) ([3]; 1 mg/kg) | Percent inhibition (passive Arthus reaction) ([3]; 0.001 (unit of dose not given)) | Percent inhibition (passive Arthus reaction) ([2]; 1 mg/kg i.v., 1 mg/kg) | Percent inhibition (passive Arthus reaction) ([2]; 3 mg/kg i.v., 3 mg/kg)
1 | CCCOC1OC(CO)C(OC2OC(C)C(O)C(O)C2O)C(OC2OC(CO)C(O)C(OCC(=O)[O-])C2O)C1NC(C)=O.[Na+] (stereo not drawn) [Compound 30] | 0/3 | 0/3 | 21.0 ± 5.9% | 15.4 ± 5.3% | – | – | – | – | – | –
2 | CCCOC1OC(CO)C(OC2OC(C)C(O)C(O)C2O)C(OC2OC(CO)C(O)C(OS(=O)(=O)[O-])C2O)C1NC(C)=O.[Na+] (stereo not drawn) [Compound 26] | 0/3 | 0/3 | 75.5 ± 1.6% | 77.3 ± 8.0% | – | – | – | – | – | –
3 | CCCOC1OC(CO)C(OC2OC(C)C(O)C(O)C2O)C(OC2OC(CO)C(O)C(O)C2OCC(=O)[O-])C1NC(C)=O.[Na+] (stereo not drawn) [Compound 32] | 0/3 | 0/3 | 61.0 ± 4.2% | 57.4 ± 8.7% | – | – | – | – | – | –
4 | CCCOC1OC(CO)C(OC2OC(CO)C(OS(=O)(=O)[O-])C(OS(=O)(=O)[O-])C2OS(=O)(=O)[O-])C(OC2OC(C)C(O)C(O)C2O)C1NC(C)=O.[Na+].[Na+].[Na+] (stereo not drawn) [Compound 12] | 0/3 | 0/3 | 45.3 ± 6.7% | 67.8 ± 5.2% | – | – | – | – | – | –
5 | COc1ccc(OC2OC(CO)C(OC3OC(CO)C(O)C(OS(=O)(=O)[O-])C3OC(=O)C(C)(C)C)C(OC3OC(C)C(O)C(O)C3O)C2OC(=O)C(C)(C)C)cc1.[Na+] (stereo not drawn) [Compound 142] | – | – | – | – | -3.3 ± 2.7% | 57.6 ± 12.6% | 84.8 ± 4.6% | – | – | –
6 | CCCOC1OC(CO)C(OC2OC(C)C(O)C(O)C2O)C(OC2OC(CO)C(O)C(OS(=O)(=O)[O-])C2O)C1NC(C)=O.[Na+] (stereo not drawn) [Compound 189] | – | – | – | – | 73.6 ± 8.9% | 59.8 ± 9.7% | – | 90.9 ± 4.0% | – | –
7 | CCCOC1OC(CO)C(OC2OC(C)C(O)C(O)C2O)C(OC2OC(CO)C(O)C(OC3(C(=O)[O-])CC(O)C(NC(C)=O)C(C(O)C(O)CO)O3)C2O)C1NC(C)=O.[Na+] (stereo not drawn) [Compound 90] | 0/3 | 0/3 | – | – | – | – | – | – | 65.4 ± 8.5% | 69.6 ± 6.3%
8 | CCCOC1OC(CO)C(OC2OC(CO)C(O)C(OC3(C(=O)[O-])CC(O)C(NC(C)=O)C(C(O)C(O)CO)O3)C2O)C(OC2OC(C)C(O)C(O)C2O)C1NC(C)=O.[Na+] (stereo not drawn) [Compound 40] | 0/3 | 0/3 | – | – | – | – | – | – | 47.3 ± 7.4% | 63.5 ± 8.3%
9 | CCCOC1OC(CO)C(OC2OC(CO)C(O)C(OCC(=O)[O-])C2O)C(OC2OC(C)C(O)C(O)C2O)C1NC(C)=O.[Na+] (stereo not drawn) [Compound 17] | 0/3 | 0/3 | 45.5 ± 3.5% | 14.9 ± 14.5% | – | – | – | – | – | –
10 | CC(=O)NC1C(O)CC(OC2C(O)C(CO)OC(OC3C(CO)OC(OC4C(O)C(O)OC(CO)C4O)C(NC(C)=O)C3OC3OC(C)C(O)C(O)C3O)C2O)(C(=O)[O-])OC1C(O)C(O)CO.[Na+] (stereo not drawn) [Compound 62] | 0/3 | 0/3 | 41.9 ± 8.9% | 57.4 ± 7.3% | – | – | – | – | – | –
11 | CCCOC1OC(CO)C(OC2OC(CO)C(O)C(OC3(C(=O)[O-])CC(O)C(NC(C)=O)C(C(O)C(O)CO)O3)C2O)C(OC2OC(C)C(O)C(O)C2O)C1NC(C)=O.[Na+] (stereo not drawn) [Compound 121] | 0/3 | 0/3 | – | – | – | – | – | – | 42.1 ± 8.3% | 59.8 ± 5.3%
12 | CCCCCCCCCCCCCCCCCCCCCCCC(=O)NC(COC1OC(CO)C(OC2OC(CO)C(O)C(OC3(C(=O)[O-])CC(O)C(NC(C)=O)C(C(O)C(O)CO)O3)C2O)C(OC2OC(C)C(O)C(O)C2O)C1NC(C)=O)C(O)CCCCCCCCCCCCCCC.[Na+] (stereo not drawn) [Compound 46] | 0/3 | 0/3 | 25.6 ± 11.3% | 74.4 ± 16.3% | – | – | – | – | – | –
13 | COc1ccc(OC2OC(CO)C(OC3OC(CO)C(O)C(OS(=O)(=O)[O-])C3O)C(OC3OC(C)C(O)C(O)C3O)C2O)cc1.[Na+] (stereo not drawn) [Compound 143] | – | – | – | – | 84.1 ± 5.2% | 52.5 ± 12.2% | 70.1 ± 1.8% | – | – | –
14 | CCCOC1OC(CO)C(OC2OC(CO)C(O)C(OS(=O)(=O)[O-])C2O)C(OC2OC(C)C(O)C(O)C2O)C1NC(C)=O.[Na+] (stereo not drawn) [Compound 10] | 0/3 | 0/3 | 25.5 ± 17.4% | 64.8 ± 3.4% | – | – | – | – | – | –
15 | CCCOC1OC(CO)C(OC2OC(C)C(O)C(O)C2O)C(OC2OC(CO)C(OS(=O)(=O)[O-])C(OS(=O)(=O)[O-])C2OS(=O)(=O)[O-])C1NC(C)=O.[Na+].[Na+].[Na+] (stereo not drawn) [Compound 176] | – | – | – | – | 57.5 ± 14.7% | 83.9 ± 10.1% | 92.4 ± 3.8% | – | – | –
16 | CCCOC1OC(CO)C(OC2OC(CO)C(O)C(OCC(=O)[O-])C2OCC(=O)[O-])C(OC2OC(C)C(O)C(O)C2O)C1NC(C)=O.[Na+].[Na+] (stereo not drawn) [Compound 18] | 0/3 | 0/3 | 75.7 ± 3.9% | 60.8 ± 9.8% | – | – | – | – | – | –
17 | CCCOC1OC(CO)C(OC2OC(C)C(O)C(O)C2O)C(OC2OC(CO)C(O)C(OCC(=O)[O-])C2OCC(=O)[O-])C1NC(C)=O.[Na+].[Na+] (stereo not drawn) [Compound 31] | 0/3 | 0/3 | 74.5 ± 6.7% | 15.9 ± 6.4% | – | – | – | – | – | –
18 | CC(=O)NC1C(O)CC(OC2C(O)C(CO)OC(OC3C(CO)OC(OCC4OC(O)C(O)C(O)C4O)C(NC(C)=O)C3OC3OC(C)C(O)C(O)C3O)C2O)(C(=O)[O-])OC1C(O)C(O)CO.[Na+] (stereo not drawn) [Compound 53] | 0/3 | 0/3 | 44.8 ± 15.0% | 58.7 ± 9.5% | – | – | – | – | – | –
19 | CCCOC1OC(CO)C(OC2OC(C)C(O)C(O)C2O)C(OC2OC(CO)C(OS(=O)(=O)[O-])C(O)C2O)C1NC(C)=O.[Na+] (stereo not drawn) [Compound 190] | – | – | – | – | 79.3 ± 4.7% | 76.9 ± 4.1% | – | 12.7 ± 6.3% | – | –
20 | CCCOC1OC(CO)C(OC2OC(C)C(O)C(O)C2O)C(OC2OC(CO)C(O)C(O)C2OS(=O)(=O)[O-])C1NC(C)=O.[Na+] (stereo not drawn) [Compound 175] | – | – | – | – | 44.6 ± 20.1% | 62.5 ± 16.1% | 67.1 ± 4.4% | – | – | –
21 | COc1ccc(OC2OC(CO)C(OC3OC(CO)C(OS(=O)(=O)[O-])C(O)C3O)C(OC3OC(C)C(O)C(O)C3O)C2O)cc1.[Na+] (stereo not drawn) [Compound 144] | – | – | – | – | -15.2 ± 6.7% | 22.0 ± 30.1% | 23.9 ± 14.7% | – | – | –
22 | CCCOC1OC(CO)C(OC2OC(C)C(O)C(O)C2O)C(OC2OC(CO)C(O)C(OC3(C(=O)[O-])CC(O)C(NC(C)=O)C(C(O)C(O)CO)O3)C2O)C1NC(C)=O.[Na+] (stereo not drawn) [Compound 123] | 0/3 | 0/3 | – | – | – | – | – | – | 76.8 ± 12.0% | 84.5 ± 5.1%
